Experimental data published in PubChem BioAssay (NCI).
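Step 1: Grow cells in 96-well plates. Step 2: Expose to compound for 48 hours at 5 concentrations. Step 3: Interpolate endpoints linearly; if unreached, use highest concentration. At the GI50, growth is halved. TGI is the concentration that stops growth completely.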

Legend:
Test in all cases: growth of human tumour cells (NCI), 48 h
[1] = test system: 786-0 renal
[2] = test system: A498 renal
[3] = test system: A549 NSCLC
[4] = test system: ACHN renal
[5] = test system: BT-549 breast
[6] = test system: CAKI-1 renal
[7] = test system: CCRF-CEM leukemia
[8] = test system: COLO 205 colon
[9] = test system: DU-145 prostate
[10] = test system: HCC-2998 colon
[11] = test system: HCT-116 colon
[12] = test system: HCT-15 colon
[13] = test system: HL-60(TB) leukemia
[14] = test system: HOP-62 NSCLC
[15] = test system: HS 578T breast
[16] = test system: HT29 colon
[17] = test system: IGROV1 ovarian
[18] = test system: K-562 leukemia
[19] = test system: KM12 colon
[20] = test system: LOX IMVI melanoma
[21] = test system: M14 melanoma
[22] = test system: MALME-3M melanoma
[23] = test system: MCF7 breast
[24] = test system: MDA-MB-231 breast
[25] = test system: MDA-MB-435
[26] = test system: MOLT-4 leukemia
[27] = test system: NCI-H226 lung
[28] = test system: NCI-H23 lung

Cn1cc(C2=C(c3cn(CCCCCO)c4ccccc34)C(=O)NC2=O)c2ccccc21
GI50 [1]: 5.81 µM
TGI [1]: > 21.5 µM
GI50 [2]: 4.18 µM
TGI [2]: 14.3 µM
GI50 [3]: 6.19 µM
TGI [3]: 24 µM
GI50 [4]: 6.82 µM
TGI [4]: 24.8 µM
GI50 [5]: 4 µM
TGI [5]: 10.9 µM
GI50 [6]: 6.34 µM
TGI [6]: > 23.3 µM
GI50 [7]: 3.01 µM
TGI [7]: > 16.6 µM
GI50 [8]: 3.89 µM
TGI [8]: 11.4 µM
GI50 [9]: 8.83 µM
TGI [9]: > 25 µM
GI50 [10]: 7.47 µM
TGI [10]: > 20.6 µM
GI50 [11]: 4.67 µM
TGI [11]: > 25 µM
GI50 [12]: 2.57 µM
TGI [12]: > 25 µM
GI50 [13]: 4.08 µM
TGI [13]: 11.5 µM
GI50 [14]: 5.92 µM
TGI [14]: 15.6 µM
GI50 [15]: 3.74 µM
TGI [15]: 17.5 µM
GI50 [16]: 3.31 µM
TGI [16]: 13.9 µM
GI50 [17]: 8.04 µM
TGI [17]: 17.9 µM
GI50 [18]: 2.16 µM
TGI [18]: > 25 µM
GI50 [19]: 4.22 µM
TGI [19]: 16.1 µM
GI50 [20]: 4.99 µM
TGI [20]: > 19.4 µM
GI50 [21]: 5.38 µM
TGI [21]: > 25 µM
GI50 [22]: 6.9 µM
TGI [22]: 16.3 µM
GI50 [23]: 3.56 µM
TGI [23]: > 22.5 µM
GI50 [24]: 8.93 µM
TGI [24]: > 24 µM
GI50 [25]: 0.815 µM
TGI [25]: 4.4 µM
GI50 [26]: 4.71 µM
TGI [26]: 16.6 µM
GI50 [27]: 5.03 µM
TGI [27]: 15.8 µM
GI50 [28]: 5.34 µM
TGI [28]: 16.5 µM
